Experimental data taken from BigSolDB 2.1.

CO/N=C(\C(=O)N[C@@H]1C(=O)N2C(C(=O)[O-])=C(COC(C)=O)CS[C@H]12)c1csc(N)n1.[Na+]
solubility (mole fraction)
Settings	in DMF	in DMSO	in NMP	in formamide	in water
278.15 K	0.0407	–	0.000254	0.0483	0.018
280.15 K	0.0413	–	0.000935	0.0503	0.0181
282.15 K	–	–	–	–	0.0182
283.15 K	0.0436	–	0.00152	0.053	0.0183
285.15 K	0.0462	–	0.00192	0.0562	0.0184
287.15 K	–	–	–	–	0.0184
288.15 K	0.0474	–	0.00279	0.0596	0.0184
290.15 K	0.0537	–	0.00383	0.0615	0.0185
292.15 K	–	–	–	–	0.0186
293.15 K	0.057	0.0738	0.00524	0.0644	0.0188
295.15 K	0.06	0.0744	0.00869	0.0652	0.0188
297.15 K	–	0.0751	–	–	0.0189
298.15 K	0.0662	0.0755	0.0118	0.0674	0.0189
300.15 K	0.069	0.077	0.038	0.0688	–
302.15 K	–	0.0777	–	–	–
303.15 K	0.0757	0.0779	0.0737	0.0702	–
305.15 K	0.0785	0.0783	0.083	0.0719	–
307.15 K	–	0.0785	–	–	–
308.15 K	0.0845	0.0788	0.103	0.0733	–
